Laboratory results as given in patent publication US11247993B2, “Pyridone derivative, composition and use as antiviral drug thereof” (priority 2018, dated 2022).
pEC50: −log10 of the molar value. Read-outs that look alike come from different tables or passages of the source.

What was measured:
[1] = tested on: influenza virus A/PR/8/34 (H1N1); test: organism not typed; assay type: cell-based; settings: 120 h
in vitro = assay type: cell-based; settings: dog
Method: Method for cytotoxicity study: The cytotoxicity assay and antiviral activity assay of the compounds were performed in parallel, except for the absence of virus, other experimental conditions were consistent with the antiviral activity assay. After 5 days of culture, the cell viability was measured using the cell viability detection kit CCK8. Raw data were used for calculating compound cytotoxicity (CC50) (see Table 1 for results).

in vivo = test: in vivo; parameters: species or system SD rats; settings: SD, rat, iv, 0.25 mg/kg
Method: Intravenous injection: about 2 mg of Compound 11-5, Compound 11-6 and Compound 1-77 were accurately weighed out and added with appropriate amount of DMA, followed by vortex to a clean solution. An appropriate volume of 30% Solutol HS-15 aqueous solution and saline were added and vortexed, so that DMA: 30% Solutol HS-15: saline was 20:20:60 (v/v/v). The solution was filtered to give a 0.05 mg·mL^−1 pharmaceutical preparation. SD rats were given a single injection of 0.25 mg·kg^−1 of Compounds 11-5, 11-6 and 1-77 intravenously. 0.20 mL of blood was collected from the jugular vein before administration and 0.083 h, 0.25 h, 0.5 h, 1 h, 2 h, 4 h, 8 h, 12 h and 24 h after administration, and placed in an EDTA-K2 anticoagulation tube. 150 μL of whole blood was accurately pipetted immediately, and added into a test tube to which 450 μL of acetonitrile has been added to precipitate proteins, and the tube was vortexed, and placed on wet ice. It was stored in a −90˜−60° C. refrigerator for biological sample analysis. The concentration of the corresponding compound in the plasma of S-D rats was determined by LC-MS/MS analysis. The corresponding pharmacokinetic parameters were calculated using a non-compartmental model in Pharsight Phoenix 7.0.

[2] = tested on: influenza A virus (H1N1, A/WSN/33); test: Efficacy on mice, IAV mouse infection model; assay type: in vivo, Female BALB/c mice; settings: 15 mpk orally twice a day; for Influenza Virus Titer in lung tissue: 15 mg/kg
Source text: Female BALB/c mice were inoculated with influenza A virus (H1N1, A/WSN/33) by intranasal administration to establish an IAV mouse infection model. The vehicle, Compound III-2 (15 mpk) or oseltamivir phosphate (15 mpk) were orally administered twice a day. Animal weight and survival status were monitored daily during the test, and on the 5th day, some animals were killed to take lung tissue for virus titer detection, and the remaining mice were used for survival rate monitoring. The in vivo anti-influenza virus efficacy of the test compound was determined by virus titer in lung tissue, mouse body weight change and survival rate.

[3] = MDCK cells, A/PR/8/34 (H1N1), 5 days, CCK8, read-out: EC50

Row | SMILES | pEC50 [1, 3] | CC50 at 5 days (in vitro) | further results
1 | O=C1c2c(O)c(=O)ccn2N([C@H]2c3ccccc3CSc3ccccc32)CN1C1CC2(CCC2)C1 [Compound I-1] | 9.30 | > 1000 nM | –
2 | O=C1c2c(O)c(=O)ccn2N([C@@H]2c3ccccc3SCc3c2ccc(F)c3F)CN1C1CC2(CCC2)C1 [Compound I-5] | 9.36 | > 1000 nM | –
3 | O=C1c2c(O)c(=O)ccn2N([C@@H]2c3ccccc3SCc3c2ccc(F)c3F)CN1CCOC1CC1 [Compound I-7] | 9.08 | > 1000 nM | –
4 | O=C1c2c(O)c(=O)ccn2N([C@@H]2c3ccccc3SCc3c2ccc(F)c3F)CN1CCSC1CC1 [Compound I-8] | 9.12 | > 1000 nM | –
5 | O=C1c2c(O)c(=O)ccn2N([C@H]2c3ccccc3CSc3ccccc32)CN1C1CC2(CC2)C1 [Compound I-9] | 9.40 | > 1000 nM | –
6 | O=C1c2c(O)c(=O)ccn2N([C@H]2c3ccccc3CSc3ccccc32)CN1C1CC2(COC2)C1 [Compound I-10] | 9.15 | > 1000 nM | –
7 | O=C1c2c(O)c(=O)ccn2N([C@@H]2c3ccccc3SCc3c2ccc(F)c3F)CN1C1CC2(CC2)C1 [Compound I-14] | 9.49 | > 1000 nM | –
8 | O=C1c2c(O)c(=O)ccn2N([C@@H]2c3ccccc3SCc3cccc(F)c32)CN1C1CC2(CCC2)C1 [Compound I-21] | 9.22 | > 1000 nM | –
9 | O=C1c2c(O)c(=O)ccn2N([C@@H]2c3ccccc3SCc3c2ccc(F)c3F)CN1C1C2CC1C2 (some centres unmarked) [Compound I-65] | 9.43 | > 1000 nM | –
10 | O=C1c2c(O)c(=O)ccn2N([C@@H]2c3ccccc3SCc3c2ccc(F)c3F)CN1C1C2CC1C2F (some centres unmarked) [Compound I-66] | 9.24 | > 1000 nM | –
11 | O=C1c2c(O)c(=O)ccn2N([C@H]2c3ccccc3CSc3ccccc32)CN1C12CC(C1)C2 [Compound I-69] | 9.46 | > 1000 nM | –
12 | O=C1c2c(O)c(=O)ccn2N([C@@H]2c3ccccc3SCc3c2ccc(F)c3F)CN1C12CC(C1)C2 [Compound I-77] | 9.80 | > 1000 nM | AUC(0-t) (in vivo): 307 ng·h/mL; Vd (in vivo): 2.77 L/kg; clearance (in vivo): 13 mL/min/kg; half-life (in vivo): 2.96 h
13 | O=C1c2c(O)c(=O)ccn2N([C@@H]2c3ccccc3SCc3c(F)cccc32)CN1C12CC(C1)C2 [Compound I-81] | 9.72 | > 1000 nM | –
14 | O=C1c2c(O)c(=O)ccn2N([C@H]2c3ccc(F)cc3CSc3ccccc32)CN1C12CC(C1)C2 [Compound I-83] | 9.68 | > 1000 nM | –
15 | O=C1c2c(O)c(=O)ccn2N([C@@H]2c3ccccc3SCc3cccc(F)c32)CN1C12CC(C1)C2 [Compound I-85] | 9.74 | > 1000 nM | –
16 | O=C1c2c(O)c(=O)ccn2N([C@@H]2c3ccccc3SCc3cccc(Cl)c32)CN1C12CC(C1)C2 [Compound I-89] | 9.77 | > 1000 nM | –
17 | O=C1c2c(O)c(=O)ccn2N([C@H]2c3ccccc3CSc3ccccc32)[C@@H]2COCC3(CC3)N12 [II-1] | – | > 1000 nM | pEC50 ([1]; MDCK): 9.35
18 | O=C1c2c(O)c(=O)ccn2N([C@H]2c3ccccc3CSc3ccccc32)[C@@H]2COC3(CC3)CN12 [II-2] | 9.29 | > 1000 nM | –
19 | O=C1c2c(O)c(=O)ccn2N([C@@H]2c3ccccc3SCc3c2ccc(F)c3F)[C@@H]2COCC3(CC3)N12 [II-5] | – | > 1000 nM | pEC50 ([1]; MDCK): 9.66; AUC(0-t) (in vivo): 187 ng·h/mL; Vd (in vivo): 3.69 L/kg; clearance (in vivo): 20.9 mL/min/kg; half-life (in vivo): 2.49 h

Row | SMILES | pEC50 [1, 3] | CC50 at 5 days (in vitro) | further results
20 | O=C1c2c(O)c(=O)ccn2N([C@@H]2c3ccccc3SCc3c2ccc(F)c3F)[C@@H]2COC3(CC3)CN12 [II-6] | 9.59 | > 1000 nM | AUC(0-t) (in vivo): 276 ng·h/mL; Vd (in vivo): 3.12 L/kg; clearance (in vivo): 13.6 mL/min/kg; half-life (in vivo): 2.97 h
21 | O=C1c2c(O)c(=O)ccn2N([C@@H]2c3ccccc3SCc3c2ccc(F)c3F)[C@@H]2COC3(COC3)CN12 [II-7] | 9.03 | > 1000 nM | –
22 | COCC1COC[C@@H]2N1C(=O)c1c(O)c(=O)ccn1N2[C@@H]1c2ccccc2SCc2c1ccc(F)c2F (some centres unmarked) [II-8] | 9.33 | > 1000 nM | –
23 | O=C1c2c(O)c(=O)ccn2N([C@@H]2c3ccccc3SCc3c(F)cccc32)[C@@H]2COCC3(CC3)N12 [II-9] | – | > 1000 nM | pEC50 ([1]; MDCK): 9.55
24 | O=C1c2c(O)c(=O)ccn2N([C@@H]2c3ccccc3SCc3c(F)cccc32)[C@@H]2COC3(CC3)CN12 [II-10] | 9.62 | > 1000 nM | –
25 | O=C1c2c(O)c(=O)ccn2N([C@H]2c3ccc(F)cc3CSc3ccccc32)[C@@H]2COCC3(CC3)N12 [II-13] | – | > 1000 nM | pEC50 ([1]; MDCK): 9.42
26 | O=C1c2c(O)c(=O)ccn2N([C@H]2c3ccc(F)cc3CSc3ccccc32)[C@@H]2COC3(CC3)CN12 [II-14] | 9.51 | > 1000 nM | –
27 | O=C1c2c(O)c(=O)ccn2N([C@@H]2c3ccccc3SCc3cccc(F)c32)[C@@H]2COCC3(CC3)N12 [II-17] | – | > 1000 nM | pEC50 ([1]; MDCK): 9.59
28 | O=C1c2c(O)c(=O)ccn2N([C@@H]2c3ccccc3SCc3cccc(F)c32)[C@@H]2COC3(CC3)CN12 [II-18] | 9.55 | > 1000 nM | –
29 | O=C1c2c(O)c(=O)ccn2N([C@@H]2c3ccccc3SCc3cccc(Cl)c32)[C@@H]2COC3(CC3)CN12 [II-22] | 9.44 | > 1000 nM | –
30 | COCC1CN2C(=O)c3c(O)c(=O)ccn3N([C@@H]3c4ccccc4SCc4c3ccc(F)c4F)[C@@H]2CO1 (some centres unmarked) [II-29] | 9.24 | > 1000 nM | –
31 | O=C1c2c(O)c(=O)ccn2N([C@@H]2c3ccccc3SCc3c2ccc(F)c3F)[C@@H]2CC(OC3CC3)CCN12 (some centres unmarked) [II-34] | 9.41 | > 1000 nM | –
32 | C=C1CCN2C(=O)c3c(O)c(=O)ccn3N([C@@H]3c4ccccc4SCc4c3ccc(F)c4F)[C@@H]2C1 [II-65] | 9.35 | > 1000 nM | –
33 | O=C1c2c(O)c(=O)ccn2N([C@@H]2c3ccccc3SCc3c2ccc(F)c3F)[C@@H]2CC=CCN12 [II-66] | 9.74 | > 1000 nM | –
34 | O=C1c2c(O)c(=O)ccn2N([C@@H]2c3ccccc3SCc3c2ccc(F)c3F)[C@@H]2C/C(=C/F)CCN12 [II-67] | 9.32 | > 1000 nM | –
35 | O=C1C2N(CC3CCCN13)C(=O)c1c(O)c(=O)ccn1N2[C@@H]1c2ccccc2SCc2c1ccc(F)c2F (some centres unmarked) [II-101] | 9.03 | > 1000 nM | –
36 | CCOC(=O)C1=C[C@@H](OC(CC)CC)[C@H](NC(C)=O)[C@@H](N)C1 [Oseltamivir phosphate, oseltamivir phosphate, reference compound] | – | – | Body weight change ([2]; infected mice, during the experiment): remained stable; Survival rate ([2]; infected mice, to the predetermined experimental end point): 100%; Mean difference of virus titer compared with the solvent group ([2]; mice, 5th day after infection): 3.46 Log 10 (number of plaques per gram of lung tissue); Influenza Virus Titer in lung tissue ([2]; mice, 5th day after infection): 3.74 ± 0.5205 Log10 (plaques number/gram of; Influenza Virus Titer in lung tissue ([2]; mice, 5th day after infection, listed as oseltamivir phosphate): 3.74 Log10 (plaques number/gram of
37 | O=C(O)[C@H]1C2CCC(CC2)[C@@H]1Nc1nc(-c2c[nH]c3ncc(F)cc23)ncc1F [VX-787, reference compound] | 8.85 | > 100 nM | –
